From patent US6407130B1, “Carboxamide-substituted benzimidazoles having tryptase-inhibiting activity” (Boehringer Ingelheim Pharma KG, priority 1999, dated 2002) come the findings set out here.

Each structure is given as a SMILES string. Where a name gives a salt, the structure may show the parent alone. A value given as a limit tells only on which side of the number the result lay.

For one series, the target named is T1, rh beta tryptase (Homo sapiens, UniProt Q15661).
T1 construct: purchased Promega
T1 sequence (Q15661 31-275): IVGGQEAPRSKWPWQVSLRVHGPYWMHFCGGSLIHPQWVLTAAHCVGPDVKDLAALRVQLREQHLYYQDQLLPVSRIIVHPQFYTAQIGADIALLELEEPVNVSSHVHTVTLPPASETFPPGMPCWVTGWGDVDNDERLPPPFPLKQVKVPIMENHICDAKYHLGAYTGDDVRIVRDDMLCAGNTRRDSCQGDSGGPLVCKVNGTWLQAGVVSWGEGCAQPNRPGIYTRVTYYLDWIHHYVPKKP
Kind of series: tryptase inhibition test (cleavage of N-p-tosyl-Gly-Pro-Lys-para-nitroaniline, p-nitroaniline measured at 405 nm). Particulars: Tris HCl buffer pH 7.4 with calcium and heparin; substrate 0.6 mM; 5 minutes' pre-incubation, 5 minutes incubation at 37° C. It counts as biochemical. A digest of the protocol: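 Run in 100 mM Tris HCl, pH 7.4, with 5 mM calcium and […] heparin, enzyme at 0.91 U/ml and 0.6 mM substrate. Compounds pre-incubated 5 min, then substrate added; p-nitroaniline read after 5 min at 37° C. Screening at 10 μM gives % inhibition; IC50 determined where inhibition exceeds 70%.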
On to `Cn1c(CCc2ccc(C(=N)N)cc2)nc2cc(N(Cc3ccccc3)C(=O)CCC3CCNCC3)ccc21` [Example 7], for which the IC50 was 0.108 µM. Turning to `CCN(CC)CC(=O)N(Cc1cccc2ccccc12)c1ccc2c(c1)nc(CCc1ccc(C(=N)N)cc1)n2C` [Example 66, N-{2-[2-(4-Amidinophenyl)-ethyl]-1-methyl-benzimidazol-5-yl}-N-( - naphthylmethyl)-[2-diethylaminoacetamide]-dihydrochloride], the IC50 came out at 0.027 µM. For `Cc1ccc(CNCC(=O)N(Cc2cccc3ccccc23)c2ccc3c(c2)nc(CCc2ccc(C(=N)N)cc2)n3C)cc1` [Example 60, N-{2-[2-(4-Amidinophenyl)-ethyl]-1-methyl-benzimidazol-5-yl}-N-(- naphthylmethyl)-[2-(4-methylbenzylamino)-acetamide]-dihydrochloride], the IC50 came out at 0.025 µM.

Regarding `Cn1c(CCc2ccc(C(=N)N)cc2)nc2cc(N(Cc3cccc4ccccc34)C(=O)CNCc3ccccc3[N+](=O)[O-])ccc21` [Example 49, N-{2-[2-(4-Amidinophenyl)-ethyl]-1-methyl-benzimidazol-5-yl}-N-( - naphthylmethyl)-[2-(2-nitrobenzylamino)-acctamide]-dihydrochloride], the IC50 is 0.013 µM. Turning to `CCN(CC)c1ccc(CNCC(=O)N(Cc2cccc3ccccc23)c2ccc3c(c2)nc(CCc2ccc(C(=N)N)cc2)n3C)cc1` [Example 54, N-{2-[2-(4-Amidinophenyl)-ethyl]-1-methyl-benzimidazol-5-yl}-N-( - naphthylmethyl)-[2-(4-diethylaminobenzylamino)-acetamide]-dihydrochloride], the IC50 amounted to 0.0086 µM. Still for that read-out and setting: as for `Cn1c(CCc2ccc(C(=N)N)cc2)nc2cc(N(Cc3ccc4ccccc4c3)C(=O)CCc3ccc(C(=N)N)cc3)ccc21` [Example 9, N-{2-[2-(4-Amidinophenyl)-ethyl]-1- -methy-benzimidazol-5-yl}-N-β-naphthylmethyl-[3-(4-amidinophenyl)-propionamide]-dihydrochloride], the figure is 0.024 µM; as for `Cn1c(CCc2ccc(C(=N)N)cc2)nc2cc(N(Cc3cccc4ccccc34)C(=O)CNCc3ccc(N)cc3)ccc21` [Example 23, N-{2-[2-(4-Amidinophenyl)-ethyl]-1-methyl-benzimidazol-5-yl}-N-( - naphthylmethyl)-[4-aminobenzylamino-acetamide]-trihydrochloride], 0.007 µM; as for `Cn1c(CCc2ccc(C(=N)N)cc2)nc2cc(N(CCC(c3ccccc3)c3ccccc3)C(=O)CCc3ccc(C(=N)N)cc3)ccc21` [Example 10, N-{2-[2-(4-Amidinophenyl)-ethyl]-1-methyl-benzimidazol-5-yl}-N-(3,3-diphenylpropyl)-[3-(4-amidinophenyl)-propionamide]-dihydrochloride], 0.016 µM.

Consider `Cn1c(CCc2ccc(C(=N)N)cc2)nc2cc(N(Cc3cccc4ccccc34)C(=O)CNCc3ccncc3)ccc21` [Example 48, N-{2-[2-(4-Amidinophenyl)-ethyl]-1-methyl-benzimidazol-5-yl}-N-( - naphthylmethyl)-[2-(pyridin-4-ylmethylamino)-acctamide]-dihydrochloride], for which the IC50 was 0.038 µM. For the compound `CCOC(=O)C1CCN(CC(=O)N(Cc2cccc3ccccc23)c2ccc3c(c2)nc(CCc2ccc(C(=N)N)cc2)n3C)CC1` [Example 71, N-{2-[2-(4-Amidinophenyl)-ethyl]-1-methyl-benzimidazol-5-yl}-N-( - naphthylmethyl)-[2-(4-ethylcarboxylate-4-piperidin-1-yl)-acetamide]-dihydrochloride], the IC50 came out at 0.0159 µM.

With `COc1ccc(CNCC(=O)N(Cc2cccc3ccccc23)c2ccc3c(c2)nc(CCc2ccc(C(=N)N)cc2)n3C)cc1` [Example 43, N-{2-[2-(4-Amidinophenyl)-ethyl]-1-methyl-benzimidazol-5-yl}-N-(- naphthylmethyl)-[2-(4-methoxybenzylamino)-acetamide]-dihydrochloride], the IC50 came to 0.01 µM. Same read-out and setting: as for `Cn1c(CCc2ccc(C(=N)N)cc2)nc2cc(N(Cc3cccc4ccccc34)C(=O)CNCc3ccccc3N)ccc21` [Example 51, N-{2-[2-(4-Amidinophenyl)-ethyl]-1-methyl-benzimidazol-5-yl}-N-( - naphthylmethyl)-[2-(2-aminobenzylamino)-acetamide]-trihydrochloride], the figure is 0.025 µM; as for `Cn1c(CCc2ccc(C(=N)N)cc2)nc2cc(N(Cc3cccc4ccccc34)C(=O)CCCN)ccc21` [Example 20, N-{2-[2-(4-Amidinophenyl)-ethyl]-1-methyl-benzimidazol-5-yl}-N-- naphthylmethyl-[4-amino-butanoic acid amide]-dihydrochloride], 0.039 µM.

For the compound `Cn1c(CCc2ccc(C(=N)N)cc2)nc2cc(N(Cc3cccc4ccccc34)C(=O)Cc3cccc4ccccc34)ccc21` [Example 80, N-{2-[2-(4-Amidinophenyl)-ethyl]-1-methyl-benzimidazol-5-yl}-N-( - naphthylmethyl)-[2-( -naphthyl)-acetamide]-hydrochloride], the IC50 is 0.0301 µM. On to `Cn1c(CCc2ccc(C(=N)N)cc2)nc2cc(N(Cc3cccc4ccccc34)C(=O)CNCc3ccccc3)ccc21` [Example 62, N-{2-[2-(4-Amidinophenyl)-ethyl]-1-methyl-benzimidazol-5-yl}-N-( - naphthylmethyl)-[2-(N-benzylamino)-acetamide]-dihydrochloride], for which the IC50 was 0.029 µM. The same measure, in the same setting: as for `CN(C)CCCNCC(=O)N(Cc1cccc2ccccc12)c1ccc2c(c1)nc(CCc1ccc(C(=N)N)cc1)n2C` [Example 78, N-{2-[2-(4-Amidinophenyl)-ethyl]-1-methyl-benzimidazol-5-yl}-N-(α-naphthylmethyl)-[2-(N-(3-dimethylaminopropyl)-amino)-acetamide]-trihydrochloride], the figure is 0.0213 µM. Same read-out and setting: under `Cn1c(CCc2ccc(C(=N)N)cc2)nc2cc(N(Cc3ccccc3)C(=O)CCc3cccc(C(=N)N)c3)ccc21` [Example 33, N-{2-[2-(4-Amidinophenyl)-ethyl]-1-methyl-benzimidazol-5-yl}-N-benzyl-[3-(3-amidinophenyl)-propionamide]-dihydrochloride] stands 0.026 µM; under `Cn1c(CCc2ccc(C(=N)N)cc2)nc2cc(N(Cc3ccccc3)C(=O)CCCN)ccc21` [Example 36, N-{2-[2-(4-Amidinophenyl)-ethyl]-1-methyl-benzimidazol-5-yl}-N-benzyl-[4-amino-butanoic acid amide]-dihydrochloride], 0.07 µM.

Tested on in the next series: not given
Experiment: not given
Settings: not given
With `CC(C)CN(C(=O)CCc1ccc(C(=N)N)cc1)c1ccc2c(c1)nc(CCc1ccc(C(=N)N)cc1)n2C` (as salt: hydrochloride) [Example 5, N-{2-[2-(4-Amidinophenyl)-ethyl]-1-methyl-benzimidazol-5-yl}-N-isobutyl-[3-(4-amidinophenyl)-propionamide]-dihydrochloride], the melting point was greater than 220 °C. For the compound `Cn1c(CCc2ccc(C(=N)N)cc2)nc2cc(NC(=O)C(N)Cc3ccc(C(=N)N)cc3)ccc21` (centres unmarked) (as salt: hydrochloride) [Example 4, N-{2-[2-(4-Amidinophenyl)-ethyl]-1-methyl-benzimidazol-5-yl}-[2-amino-3-(p-amidinophenyl)-propionic Acid Amide]-trihydrochloride], the melting point is greater than 260 °C.

The IC50 is the concentration at which inhibition is half-maximal. As usually defined, the melting point is the temperature, or range, at which the solid turns liquid.
